We go through 18 molecules from patent US12590108B2, “Boracic acid compound” (Phaeno Therapeutics Co., Ltd, priority 2020, dated 2026).

For orientation: MIC means the smallest concentration in the dilution series that meets the test's criterion for growth inhibition.

Holding throughout (test): MIC shift, liquid microdilution, meropenem fixed at 4 μg/mL
Common to all, as to type: cell-based
In general terms: Dilution methods test growth across graded concentrations, often in twofold steps.

In test [1] the test system is Klebsiella pneumoniae ARLG-1196 (CTM-1 group, SHV, NDM, TEM). To be noted: compound + meropenem fixed at 4 μg/mL; K. pneumoniae ARLG-1196, CTM-1 and isoforms thereof, SHV, NDM, TEM. Here is the method: (§1) The test compound was tested for minimum inhibitory concentration against three strains of Klebsiella pneumoniae ATCC BAA-1705 (KPC-2), ATCC BAA-2470 (NDM-1), and ARLG-1196 (CTM-1 group, SHV, NDM, TEM), and one strain of Escherichia coli ARLG-2829 (NDM-5, OXA-1). According to the requirements of the Institute of Clinical And Laboratory Standard (CLSI), the minimum inhibitory concentration (MIC) of each drug combination was determined by liquid microdilution method under the premise of fixing the concentration of meropenem at 4 μg/mL.
(§2) Preparation of compound mother plate: On the day of the experiment, the compound to be tested (the final concentration was 0.3125 to 20 μg/mL) and meropenem (the final concentration ranged from 1 to 64 μg/mL) were dissolved in a corresponding solvent (sterile ddH2O or DMSO) to form 100× mother liquors with the highest test concentration, and the compound to be tested and meropenem were then subjected to 2-fold series gradient dilution in a V-bottom 96-well plate to obtain 100× working solutions with the final concentration.
(§3) Preparation of inoculation solution: Fresh bacterial clones were picked from an overnight Mueller Hinton II Agar medium (MHA, Cat. No. 211438, BD BBLTM) plate, suspended in sterilized physiological saline, and adjusted to a concentration of 1×10^8 CFU/mL, and the suspension was further diluted to 5-10^5 CFU/mL with Cation-Adjusted Mueller Hinton II Broth (MHB, Catalog #212332, BD BBLTM).
(§4) Detection of minimum inhibitory concentration (MIC): 1 μL of the compound to be tested and the meropenem working solution were transferred to the corresponding wells to be tested in a round-bottomed 96-well plate (Catalog #3788, Corning), and 98 μL of the inoculation solution was added to the round-bottomed 96-well plate containing drugs, which was an MIC test plate; and after the plate was inverted and cultured at 37° C. for 20-24 h, the MIC value was read, and the minimum inhibitory concentration for inhibiting bacterial growth was defined as MIC.

Test [2] concerns Escherichia coli ARLG-2829 (NDM-5, OXA-1). To be noted: compound + meropenem fixed at 4 μg/mL; E. coli ARLG-2829 (urine clinical isolate), NDM-5, OXA-1. How it is done:
as §1, §2, §3, §4

Test [3] deals with Klebsiella pneumoniae ATCC BAA-1705 (KPC-2). To be noted: compound + meropenem fixed at 4 μg/mL; K. pneumoniae ATCC BAA-1705, KPC-2. How it is done: as §1, §2, §3, §4
Test [4] has as its system Klebsiella pneumoniae ATCC BAA-2470 (NDM-1). To be noted: compound + meropenem fixed at 4 μg/mL; K. pneumoniae ATCC BAA-2470, NDM-1. How it is done: as §1, §2, §3, §4

For `CC1(C)Oc2ccc(F)c(C(=O)O)c2OB1O` [Compound 1], the MIC is greater than 20 µg/mL in test [1], greater than 20 µg/mL in test [2], 0.0625 µg/mL in test [3] and greater than 20 µg/mL in test [4].

Turning to `COB1Oc2c(ccc(F)c2C(=O)O)OC1(C)C` [Compound 2], the MIC in test [1] was greater than 20 µg/mL; in test [2], greater than 20 µg/mL; in test [3], 20 µg/mL; in test [4] it was greater than 20 µg/mL.

For the molecule `COc1ccc2c(c1C(=O)O)OB(O)CO2` [Compound 3], the minimum inhibitory concentration (MIC) was 2.5 µg/mL in test [1], 5 µg/mL in test [2], no more than 0.3125 µg/mL in test [3] and 5 µg/mL in test [4].

For `O=C(O)c1c(F)cc(Cl)c2c1OB(O)CO2` [Compound 4], the MIC in test [1] is 2.5 µg/mL; in test [2] it was 10 µg/mL; in test [3] it was no more than 0.03 µg/mL; in test [4], 2.5 µg/mL.

With `O=C(O)c1c(Cl)ccc2c1OB(O)CO2` [Compound 5], the MIC in test [1] was 10 µg/mL; in test [2], greater than 20 µg/mL; in test [3], no more than 0.3125 µg/mL; in test [4] it was 20 µg/mL.

On to `O=C(O)c1c(F)c(F)cc2c1OB(O)CO2` [Compound 6], for which the MIC in test [1] is 10 µg/mL; in test [2], 20 µg/mL; in test [3], no more than 0.03 µg/mL; in test [4], 10 µg/mL.

Take `O=C(O)c1ccc(Cl)c2c1OB(O)CO2` [Compound 7]: the MIC in test [1] is 20 µg/mL; in test [2], greater than 20 µg/mL; in test [3] it was no more than 0.03 µg/mL; in test [4], 20 µg/mL.

As to `O=C(O)c1c(F)ccc2c1OB(O)CO2` [Compound 8], the MIC in test [1] was 10 µg/mL; in test [2], 20 µg/mL; in test [3] it was no more than 0.3125 µg/mL; in test [4], 20 µg/mL.

Regarding `COB1COc2ccc(F)c(C(=O)O)c2O1` [Compound 9], the minimal inhibitory concentration (MIC) in test [1] is greater than 20 µg/mL; in test [2], greater than 20 µg/mL; in test [3], no more than 0.3125 µg/mL; in test [4], greater than 20 µg/mL.

For `O=C(O)c1cc(F)cc2c1OB(O)CO2` [Compound 10], the MIC is 2.5 µg/mL in test [1], 10 µg/mL in test [2], no more than 0.03 µg/mL in test [3] and 5 µg/mL in test [4].

Take `COc1cc(Cl)c2c(c1C(=O)O)OB(O)CO2` [Compound 11]: the MIC in test [1] was 2.5 µg/mL; in test [2], 10 µg/mL; in test [3], no more than 0.03 µg/mL; in test [4], 2.5 µg/mL.

With `COc1c(Cl)c(Cl)c2c(c1C(=O)O)OB(O)CO2` [Compound 12], the MIC in test [1] was 2.5 µg/mL; in test [2], 10 µg/mL; in test [3], 0.06 µg/mL; in test [4] it was 5 µg/mL.

For the molecule `O=C(O)c1c2c(cc3c1O[B-](O)(O)CO3)CCCO2` [Compound 14], the MIC in test [1] was 2.5 µg/mL; in test [2] it was 10 µg/mL; in test [3], no more than 0.3125 µg/mL; in test [4] it was 5 µg/mL.

Turning to `COc1cc2c(c(C(=O)O)c1F)O[B-](O)(O)CO2` [Compound 16], the MIC in test [1] was found to be 5 µg/mL; in test [2], 10 µg/mL; in test [3] it was 0.625 µg/mL; in test [4], 5 µg/mL.

Take `Cc1ccc2c(c1C(=O)O)O[B-](O)(O)CO2` [Compound 17]: the MIC in test [1] is 10 µg/mL; in test [2], 20 µg/mL; in test [3] it was no more than 0.3125 µg/mL; in test [4] it was 10 µg/mL.

On to `O=C(O)c1c(OCC2CC2)ccc2c1O[B-](O)(O)CO2` [Compound 20], for which the MIC was 2.5 µg/mL in test [1], 2.5 µg/mL in test [2], 1.25 µg/mL in test [3] and 2.5 µg/mL in test [4].

Regarding `O=C(O)c1c(OC2COC2)ccc2c1O[B-](O)(O)CO2` [Compound 23], the minimal inhibitory concentration (MIC) in test [1] worked out at 1.25 µg/mL; in test [2], 5 µg/mL; in test [3], 0.625 µg/mL; in test [4], 1.25 µg/mL.

`CCCOc1ccc2c(c1C(=O)O)O[B-](O)(O)CO2` [Compound 29]: the MIC in test [1] is 1.25 µg/mL; in test [2], 5 µg/mL; in test [3] it was 0.625 µg/mL; in test [4], 2.5 µg/mL.
